From patent US20040022777A1, “Fragments and antagonists of heat shock protein 60” (priority 1999, published 2004)
Ends that are not written are not given here.

Columns and labels:
Type in all cases: cell-based, mouse
[1] = system: bone marrow-derived macrophages of C57BL/6 and C3H/HeN mice; assay: TNFα production by bone marrow-derived macrophages with wild-type Tlr4 (sandwich ELISA); conditions: C57BL/6 and C3H/HeN macrophages; LPS 10 ng/ml, hsp60 10 μg/ml; 6 h
[2] = system: bone marrow-derived macrophages of C3H/HeJ mice (mutant Toll-like receptor 4); assay: TNFα production by bone marrow-derived macrophages with mutant Tlr4 (sandwich ELISA); conditions: C3H/HeJ macrophages; LPS 10 ng/ml, hsp60 10 μg/ml, oligonucleotides 30 μg/ml; 6 h
[3] = system: bone marrow-derived macrophages of C57BL/6 and C3H/HeN mice; assay: NO (nitrite) production by bone marrow-derived macrophages with wild-type Tlr4 (Griess reaction); conditions: C57BL/6 and C3H/HeN macrophages; LPS 10 ng/ml, hsp60 10 μg/ml; 24 h
[4] = system: hsp60 induced TNFα and Nitric oxide (NO) secretion in J774 cells; assay: Screening of 10-mer peptides for inhibition of hsp60 induced (and CpG induced) TNFα secretion; conditions: crude peptides at a dilution of 1:10
Procedure: The crude peptides were re-suspended in 500 μl water and tested at a dilution of 1:10, for inhibition of hsp60 induced TNFα and Nitric oxide (NO) secretion in J774 cells (as described in example no. 1 of the application). Selected peptides were tested (in an equivalent assay) also for inhibition of CpG induced TNFα secretion. CpG is a non-specific immunostimulatory oligonucleotide motif with the sequence: […]. CpG DNA: a novel immunomodulator Trends Microbiol 1999; 7:64-5). CpG stimulates J774 cells to produce TNFα in a mechanism different to that used by hsp60 and thus serves as a negative control for non-selective inhibition of TNF secretion (which is not mediated through specific inhibition of hsp60). […] The peptides in this chart were selected for re-screening based on the activity found in screening all the 192 peptides synthesized. The results are presented as percent inhibition of TNF-secretion in response to induction with hsp60 or CpG, and are the average of two repeats.

[5] = system: bone marrow-derived macrophages of C3H/HeJ mice (mutant Toll-like receptor 4); assay: NO (nitrite) production by bone marrow-derived macrophages with mutant Tlr4 (Griess reaction); conditions: Tlr4 wild-type compared with Tlr4 defective macrophages; oligonucleotide 30 μg/ml; 24 h

Substance | TNFα secretion [1] | TNFα response [2] | NO production [3] | inhibition of hsp60 induced TNFα secretion, activity and specificity versus CpG induced TNFα secretion [4] | NO response / NO formation in the two macrophage types [5]
Lipopolysaccharide [LPS, reference compound] | rapid secretion of large amounts of TNFα | no response | responded | – | –
VLKVGGTSDV [Peptide No. 173] | – | – | – | hsp60-inhibiting | –
5′-ACCGATAACGTTGCCGGTGACG-3′ (DNA ACCGATAACGTTGCCGGTGACG; chemistry not given here) [Pal+, immunostimulatory oligonucleotide containing a CpG motif] | – | less stimulatory | – | – | failed to induce NO formation
KVGGTSDVEV [Peptide No. 175] | – | – | – | hsp60-inhibiting | –
5′-TCCATGACGTTCCTGATGCT-3′ (DNA TCCATGACGTTCCTGATGCT; chemistry not given here) [ODN1668, immunostimulatory oligonucleotide containing a CpG motif] | – | strong TNFα response | – | – | very similar NO response
5′-TCCATGAGCTTCCTGATGCT -3′ (DNA TCCATGAGCTTCCTGATGCT; chemistry not given here) [ODN1720, non-stimulatory oligonucleotide lacking a CpG motif] | – | did not provoke a response | – | – | failed to induce NO formation
